Laboratory results reported in PubChem BioAssay (NCI).
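Assay format: 96-well plates, 48-hour exposure. GI50 marks 50% less growth. TGI marks complete inhibition of growth.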

Experiments:
Assay in all cases: NCI tumour cell line growth inhibition, 48 h
SR leukemia = tested on: SR leukemia
SF-268 CNS = tested on: SF-268 CNS
MDA-MB-435 = tested on: MDA-MB-435
UACC-257 melanoma = tested on: UACC-257 melanoma
OVCAR-5 ovarian = tested on: OVCAR-5 ovarian
K-562 leukemia = tested on: K-562 leukemia
OVCAR-4 ovarian = tested on: OVCAR-4 ovarian
MCF7 breast = tested on: MCF7 breast
HT29 colon = tested on: HT29 colon
RXF 393 renal = tested on: RXF 393 renal

Row | Compound | GI50 (SR leukemia) | TGI (SR leukemia) | GI50 (SF-268 CNS) | TGI (SF-268 CNS) | GI50 (MDA-MB-435) | TGI (MDA-MB-435) | GI50 (UACC-257 melanoma) | TGI (UACC-257 melanoma) | GI50 (OVCAR-5 ovarian) | TGI (OVCAR-5 ovarian) | GI50 (K-562 leukemia) | TGI (K-562 leukemia) | GI50 (OVCAR-4 ovarian) | TGI (OVCAR-4 ovarian) | GI50 (MCF7 breast) | TGI (MCF7 breast) | GI50 (HT29 colon) | TGI (HT29 colon) | TGI (RXF 393 renal) | GI50 (RXF 393 renal)
1 | COc1ccc(-c2cs/c(=N\N=C\c3ccc(O)cc3O)n2/N=C/c2ccc(O)cc2O)cc1 | 2.53 µM | > 100 µM | 2.36 µM | 6.13 µM | 1.69 µM | 3.48 µM | 2.28 µM | 6.19 µM | 2.37 µM | 5.18 µM | 2.62 µM | > 100 µM | 2.17 µM | 7.12 µM | 1.9 µM | 5.84 µM | 2.41 µM | 5.26 µM | – | –
2 | CC1=C(C(=O)CC(=O)C(=O)Nc2cc(C)ccc2C)Sc2ccccc2N1 | – | – | – | > 100 µM | – | – | – | > 100 µM | – | > 100 µM | – | > 100 µM | – | > 100 µM | – | – | – | > 100 µM | > 100 µM | –
3 | C=C1C(=O)OC2C/C(C)=C/CC/C(C)=C/CCC3(COC(C)=O)OC3CC12 (stereo not drawn) | – | – | – | 21.7 µM | – | – | – | 29.6 µM | – | 30.5 µM | – | 32.7 µM | – | 46.5 µM | – | – | – | 24.1 µM | 18 µM | –
4 | CCC(O)c1ccc(Br)cc1NC(=O)c1cccc(Cl)c1 (stereo not drawn) | 24 µM | 70.5 µM | 26.2 µM | 93.2 µM | 16.9 µM | 35 µM | 18.4 µM | 35.1 µM | 32.3 µM | > 100 µM | 15.6 µM | > 100 µM | 30 µM | > 100 µM | 12 µM | 96 µM | 17.9 µM | 37.2 µM | – | –
5 | CCC(=O)c1c(NOC2OCC(OC(C)=O)C(OC(C)=O)C2OC(C)=O)nc(OC)n(C)c1=O (stereo not drawn) | – | > 100 µM | – | > 100 µM | – | – | – | > 100 µM | – | > 100 µM | – | > 100 µM | – | > 100 µM | – | – | – | > 100 µM | > 100 µM | –
6 | Cc1ccccc1NC(=O)c1cc(-c2ccc([N+](=O)[O-])cc2)nc(=S)[nH]1 | – | – | – | > 100 µM | – | – | – | > 100 µM | – | > 100 µM | – | > 100 µM | – | > 100 µM | – | – | – | > 100 µM | > 100 µM | –
7 | CCOC(=O)C1=C(Nc2ccc(Cl)cc2Cl)OCC1=O | – | > 100 µM | – | > 100 µM | – | – | – | > 100 µM | – | > 100 µM | – | > 100 µM | – | > 100 µM | – | – | – | > 100 µM | – | –
8 | C=CCn1c(C)nc2ccc(Nc3nc(Nc4ccc(F)cc4)nc4ccccc34)cc21 | 2.26 µM | 5.93 µM | 8.69 µM | 27.8 µM | 4 µM | 20.4 µM | 13.1 µM | 29.9 µM | 11.6 µM | 26.6 µM | 3.13 µM | 11.9 µM | 2.06 µM | 5.81 µM | – | – | 3 µM | 13.3 µM | 2.57 µM | 1.23 µM
9 | O=C1/C(=C/c2cccc(Br)c2)COc2ccc(O)cc21 | 0.47 µM | 5.2 µM | 3.33 µM | 18.2 µM | 2.13 µM | 5.35 µM | 3.93 µM | 15.9 µM | 3.72 µM | 14.5 µM | 1.24 µM | 11 µM | 3.55 µM | 14.1 µM | – | – | 2.43 µM | 10.2 µM | 5.99 µM | 2.12 µM
